Test results published in publication PMC10191551, “Safety, Tolerability, and Pharmacokinetics of Oral Ferric Maltol in Children With Iron Deficiency: Phase 1 Study” (JPGN Reports, 2021).

Columns and labels:
[1] = cited from earlier work
[2] = parameters: method as in PMID 34029682; conditions: patients with CKD, over 16 weeks; ref [35]; cited from earlier work
[3] = Phase 1 study: iron uptake (serum iron and TSAT) after oral ferric maltol; type: in vivo, children; conditions: 7.8, 16.6, 30 mg b.d.
From the text: Serum iron and TSAT provided measures of iron uptake.

[4] = Phase 1 study: safety and tolerability (adverse events, vital signs, ECG, laboratory tests, compliance) of oral ferric maltol; conditions: for Patients With an AE: Any AE: safety population
From the text: This phase 1, randomized, open-label, parallel-group pharmacokinetic study involved children seen as outpatients at 6 centers in the UK: Alder Hey Children’s NHS Foundation Trust; King’s College Hospital NHS Foundation Trust; University Hospitals of Leicester NHS Trust; Nottingham University Hospitals NHS Trust; Manchester University NHS Foundation Trust; and University College London Hospitals NHS Foundation Trust. […] Children aged 16 years or older and parents or guardians of children younger than 16 years provided written informed consent to participate before study initiation.
Children aged 10–17 years with confirmed iron deficiency at screening (defined as either ferritin <30 µg/L or ferritin <50 µg/L with transferrin saturation [TSAT] <20%) were eligible for inclusion in the study. Patients with or without anemia could be enrolled, provided hemoglobin was ≥8.5 g/dL at screening. Girls of childbearing potential had to agree to use adequate contraception during and until 4 weeks after the end of the study.
The study comprised a screening period followed by a 10-day randomized treatment period and a post-treatment safety follow-up. Children were randomized 1:1:1 (stratified by age [10–14 vs 15–17 years] and sex) to ferric maltol 7.8 mg, 16.6 mg, or 30 mg twice daily (b.d.) for 9 days and once in the morning of day 10. The first and last doses of ferric maltol were taken in the presence of the investigator. Children took each dose with a glass of water 1 hour before or 2 hours after a meal. Doses were based on daily elemental iron requirements for the broad range of body weights of participants likely to be enrolled, with the aim of finding a minimum effective dose in this age group. The 30 mg b.d. adult dosage was chosen as the highest exposure; dosages of 16.6 mg b.d. and 7.8 mg b.d. were chosen as approximately one-half and one-quarter of the adult dose, respectively, with the exact dose depending on the full fill of available capsule shell sizes.
The primary objectives were to assess iron uptake and ferric maltol pharmacokinetics. Serum iron and TSAT provided measures of iron uptake. In adults, dissociated maltol undergoes rapid glucuronidation and is cleared in urine as maltol glucuronide (36); therefore, in this study, plasma maltol glucuronide was measured to confirm the rate of clearance in children. The secondary objective was to assess the safety and tolerability of ferric maltol in terms of vital signs, AEs, concomitant medications, 12-lead electrocardiograms, and clinical laboratory blood tests.
Safety analyses were conducted in all patients who received at least 1 dose of the study medication and had at least 1 subsequent visit (the safety population). […] Clinically significant changes from baseline in vital signs, physical examination, and routine clinical laboratory abnormalities were also recorded.

Cc1occc(=O)c1[O-].Cc1occc(=O)c1[O-].Cc1occc(=O)c1[O-].[Fe+3] [Ferric maltol]
Hemoglobin concentrations versus placebo ([1]; patients with IBD, over 12 weeks, ref [19]): significantly increased hemoglobin concentrations compared with placebo
Incidence of gastrointestinal TEAEs ([1]; phase 3 trial in adults with IBD, ref [19],[20]): 38%
Hemoglobin and iron indices [2]: statistical and clinically significant increases in hemoglobin and iron indices
Dose dependence of changes in serum iron concentrations [3]: not dose-dependent
Iron uptake (serum iron and TSAT) ([3]; days 1 and 10, ITT population): increased iron uptake
Patients With an AE: Any SAE ([4]; 7.8 mg b.d. (n = 12)): 0 (0.0) n (%)
Patients With an AE: Any TEAE ([4]; 7.8 mg b.d. (n = 12)): 7 (58.3) n (%)
Patients With an AE: TEAE leading to study discontinuation ([4]; 7.8 mg b.d. (n = 12)): 0 (0.0) n (%)
Patients With an AE: TEAE related to study drug ([4]; 7.8 mg b.d. (n = 12)): 3 (25.0) n (%)
Patients with a TEAE: Abdominal distension ([4]; 7.8 mg b.d. (n = 12)): 0 (0.0) n (%)
Patients with a TEAE: Abdominal pain ([4]; 7.8 mg b.d. (n = 12)): 0 (0.0) n (%)
Patients with a TEAE: Anal incontinence ([4]; 7.8 mg b.d. (n = 12)): 0 (0.0) n (%)
Patients with a TEAE: Cellulitis ([4]; 7.8 mg b.d. (n = 12)): 1 (8.3) n (%)
Patients with a TEAE: Constipation ([4]; 7.8 mg b.d. (n = 12)): 0 (0.0) n (%)
Patients with a TEAE: Cough ([4]; 7.8 mg b.d. (n = 12)): 1 (8.3) n (%)
Patients with a TEAE: Diarrhea ([4]; 7.8 mg b.d. (n = 12)): 2 (16.7) n (%)
Patients with a TEAE: Dizziness ([4]; 7.8 mg b.d. (n = 12)): 0 (0.0) n (%)
Patients with a TEAE: Dyspepsia ([4]; 7.8 mg b.d. (n = 12)): 0 (0.0) n (%)
Patients with a TEAE: Dyspnea ([4]; 7.8 mg b.d. (n = 12)): 1 (8.3) n (%)
Patients with a TEAE: Fatigue ([4]; 7.8 mg b.d. (n = 12)): 1 (8.3) n (%)
Patients with a TEAE: Nausea ([4]; 7.8 mg b.d. (n = 12)): 1 (8.3) n (%)
Patients with a TEAE: Nevus hemorrhage ([4]; 7.8 mg b.d. (n = 12)): 1 (8.3) n (%)
Patients with a TEAE: Palpitations ([4]; 7.8 mg b.d. (n = 12)): 1 (8.3) n (%)
Patients with a TEAE: Papule ([4]; 7.8 mg b.d. (n = 12)): 0 (0.0) n (%)
Patients with a TEAE: Pyrexia ([4]; 7.8 mg b.d. (n = 12)): 0 (0.0) n (%)
Patients with a TEAE: Skin abrasion ([4]; 7.8 mg b.d. (n = 12)): 0 (0.0) n (%)
Patients with a TEAE: Sneezing ([4]; 7.8 mg b.d. (n = 12)): 1 (8.3) n (%)
Patients with a TEAE: Tonsillitis ([4]; 7.8 mg b.d. (n = 12)): 0 (0.0) n (%)
Patients with a TEAE: Vomiting ([4]; 7.8 mg b.d. (n = 12)): 1 (8.3) n (%)
TEAEs by system organ class: Cardiac disorders ([4]; 7.8 mg b.d. (n = 12)): 1 (8.3) n (%)
TEAEs by system organ class: Gastrointestinal disorders ([4]; 7.8 mg b.d. (n = 12)): 4 (33.3) n (%)
TEAEs by system organ class: General disorders and administration-site conditions ([4]; 7.8 mg b.d. (n = 12)): 1 (8.3) n (%)
TEAEs by system organ class: Injury, poisoning, and procedural complications ([4]; 7.8 mg b.d. (n = 12)): 0 (0.0) n (%)
TEAEs by system organ class: Neoplasms benign, malignant, and unspecified ([4]; 7.8 mg b.d. (n = 12)): 1 (8.3) n (%)
TEAEs by system organ class: Nervous system disorders ([4]; 7.8 mg b.d. (n = 12)): 1 (8.3) n (%)
TEAEs by system organ class: Respiratory, thoracic, and mediastinal disorders ([4]; 7.8 mg b.d. (n = 12)): 3 (25.0) n (%)
TEAEs by system organ class: Skin and subcutaneous-tissue disorders ([4]; 7.8 mg b.d. (n = 12)): 1 (8.3) n (%)
Patients With an AE: Any AE ([4]; 7.8 mg b.d. (n = 12)): 7 (58.3) n (%)
Patients With an AE: Any SAE ([4]; 16.6 mg b.d. (n = 13)): 0 (0.0) n (%)
Patients With an AE: Any TEAE ([4]; 16.6 mg b.d. (n = 13)): 6 (46.2) n (%)
Patients With an AE: TEAE leading to study discontinuation ([4]; 16.6 mg b.d. (n = 13)): 1 (7.7) n (%)
Patients With an AE: TEAE related to study drug ([4]; 16.6 mg b.d. (n = 13)): 1 (7.7) n (%)
Patients with a TEAE: Abdominal distension ([4]; 16.6 mg b.d. (n = 13)): 0 (0.0) n (%)
Patients with a TEAE: Abdominal pain ([4]; 16.6 mg b.d. (n = 13)): 0 (0.0) n (%)
Patients with a TEAE: Anal incontinence ([4]; 16.6 mg b.d. (n = 13)): 0 (0.0) n (%)
Patients with a TEAE: Cellulitis ([4]; 16.6 mg b.d. (n = 13)): 0 (0.0) n (%)
Patients with a TEAE: Constipation ([4]; 16.6 mg b.d. (n = 13)): 0 (0.0) n (%)
Patients with a TEAE: Cough ([4]; 16.6 mg b.d. (n = 13)): 0 (0.0) n (%)
Patients with a TEAE: Diarrhea ([4]; 16.6 mg b.d. (n = 13)): 0 (0.0) n (%)
Patients with a TEAE: Dizziness ([4]; 16.6 mg b.d. (n = 13)): 1 (7.7) n (%)
Patients with a TEAE: Dyspepsia ([4]; 16.6 mg b.d. (n = 13)): 0 (0.0) n (%)
Patients with a TEAE: Dyspnea ([4]; 16.6 mg b.d. (n = 13)): 0 (0.0) n (%)
Patients with a TEAE: Fatigue ([4]; 16.6 mg b.d. (n = 13)): 1 (7.7) n (%)
Patients with a TEAE: Nausea ([4]; 16.6 mg b.d. (n = 13)): 0 (0.0) n (%)
Patients with a TEAE: Nevus hemorrhage ([4]; 16.6 mg b.d. (n = 13)): 0 (0.0) n (%)
Patients with a TEAE: Palpitations ([4]; 16.6 mg b.d. (n = 13)): 0 (0.0) n (%)
Patients with a TEAE: Papule ([4]; 16.6 mg b.d. (n = 13)): 0 (0.0) n (%)
Patients with a TEAE: Pyrexia ([4]; 16.6 mg b.d. (n = 13)): 0 (0.0) n (%)
Patients with a TEAE: Skin abrasion ([4]; 16.6 mg b.d. (n = 13)): 1 (7.7) n (%)
Patients with a TEAE: Sneezing ([4]; 16.6 mg b.d. (n = 13)): 0 (0.0) n (%)
Patients with a TEAE: Tonsillitis ([4]; 16.6 mg b.d. (n = 13)): 1 (7.7) n (%)
Patients with a TEAE: Vomiting ([4]; 16.6 mg b.d. (n = 13)): 1 (7.7) n (%)
TEAEs by system organ class: Cardiac disorders ([4]; 16.6 mg b.d. (n = 13)): 0 (0.0) n (%)
TEAEs by system organ class: Gastrointestinal disorders ([4]; 16.6 mg b.d. (n = 13)): 2 (15.4) n (%)
TEAEs by system organ class: General disorders and administration-site conditions ([4]; 16.6 mg b.d. (n = 13)): 2 (15.4) n (%)
TEAEs by system organ class: Injury, poisoning, and procedural complications ([4]; 16.6 mg b.d. (n = 13)): 1 (7.7) n (%)
TEAEs by system organ class: Neoplasms benign, malignant, and unspecified ([4]; 16.6 mg b.d. (n = 13)): 0 (0.0) n (%)
TEAEs by system organ class: Nervous system disorders ([4]; 16.6 mg b.d. (n = 13)): 3 (23.1) n (%)
TEAEs by system organ class: Respiratory, thoracic, and mediastinal disorders ([4]; 16.6 mg b.d. (n = 13)): 0 (0.0) n (%)
TEAEs by system organ class: Skin and subcutaneous-tissue disorders ([4]; 16.6 mg b.d. (n = 13)): 0 (0.0) n (%)
Patients With an AE: Any AE ([4]; 16.6 mg b.d. (n = 13)): 7 (53.8) n (%)
Children who discontinued the study early because of a TEAE ([4]; 16.6 mg group, moderate tonsillitis, not related to study drug): 1
Patients With an AE: Any SAE ([4]; 30 mg b.d. (n = 12)): 0 (0.0) n (%)
Patients With an AE: Any TEAE ([4]; 30 mg b.d. (n = 12)): 7 (58.3) n (%)
Patients With an AE: TEAE leading to study discontinuation ([4]; 30 mg b.d. (n = 12)): 0 (0.0) n (%)
Patients With an AE: TEAE related to study drug ([4]; 30 mg b.d. (n = 12)): 5 (41.7) n (%)
Patients with a TEAE: Abdominal distension ([4]; 30 mg b.d. (n = 12)): 1 (8.3) n (%)
Patients with a TEAE: Abdominal pain ([4]; 30 mg b.d. (n = 12)): 1 (8.3) n (%)
Patients with a TEAE: Anal incontinence ([4]; 30 mg b.d. (n = 12)): 1 (8.3) n (%)
Patients with a TEAE: Cellulitis ([4]; 30 mg b.d. (n = 12)): 0 (0.0) n (%)
Patients with a TEAE: Constipation ([4]; 30 mg b.d. (n = 12)): 1 (8.3) n (%)
Patients with a TEAE: Cough ([4]; 30 mg b.d. (n = 12)): 1 (8.3) n (%)
Patients with a TEAE: Diarrhea ([4]; 30 mg b.d. (n = 12)): 1 (8.3) n (%)
Patients with a TEAE: Dizziness ([4]; 30 mg b.d. (n = 12)): 2 (16.7) n (%)
Patients with a TEAE: Dyspepsia ([4]; 30 mg b.d. (n = 12)): 1 (8.3) n (%)
Patients with a TEAE: Dyspnea ([4]; 30 mg b.d. (n = 12)): 0 (0.0) n (%)
Patients with a TEAE: Fatigue ([4]; 30 mg b.d. (n = 12)): 2 (16.7) n (%)
Patients with a TEAE: Nausea ([4]; 30 mg b.d. (n = 12)): 1 (8.3) n (%)
Patients with a TEAE: Nevus hemorrhage ([4]; 30 mg b.d. (n = 12)): 0 (0.0) n (%)
Patients with a TEAE: Palpitations ([4]; 30 mg b.d. (n = 12)): 0 (0.0) n (%)
